From ChEMBL document CHEMBL4043239, “Discovery and optimization of oxadiazole-based FLAP inhibitors” (Bioorg Med Chem Lett, 2017) come the findings set out here.

Data set [1] has as its target T1, Arachidonate 5-lipoxygenase-activating protein (Homo sapiens, UniProt P20292).
T1 sequence (P20292 whole entry): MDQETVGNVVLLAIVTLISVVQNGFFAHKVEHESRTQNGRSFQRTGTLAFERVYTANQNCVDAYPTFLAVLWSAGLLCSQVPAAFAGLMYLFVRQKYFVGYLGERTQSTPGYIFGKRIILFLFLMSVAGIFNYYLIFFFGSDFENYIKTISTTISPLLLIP
Briefly: Displacement of [125I]-L-691831 from human FLAP expressed in Sf9 cell membranes after 2 hrs by Topcount method. In general terms: Loss of bound radioactivity is the signal in a displacement assay; it reports binding, not function.

Data set [2] has as its target T1, Arachidonate 5-lipoxygenase-activating protein. Briefly: Inhibition of FLAP in calcimycin-stimulated human whole blood assessed as reduction in LTB4 production pretreated for 15 mins followed by calcimycin addition after 30 mins by ELISA. In general terms: In an ELISA, binding on a coated surface is turned into a signal by an enzyme label.
Data set [3] in a line: Oral bioavailability in Sprague-Dawley rat at 3 mg/kg by HPLC-MS/MS analysis. It counts as ADME, organism-based. To be noted: in vivo.
Data set [4] in a line: Stability in human liver microsomes at 1 uM pretreated for 10 mins followed by NADPH addition after 60 mins by LC/MS analysis relative to hepatic blood flow. Type of data set: ADME, microsome. To be noted: read-out: Stability.
A short description of data set [5]: Mean residence time in Sprague-Dawley rat at 1 mg/kg, iv by HPLC-MS/MS analysis. Type of data set: ADME, organism-based. To be noted: in vivo.
Data set [6] is described as follows: Aqueous equilibrium solubility in citric acid/disodium phosphate buffer at pH 6.8 at 1 uM after 24 hrs by HPLC method. Type of data set: physicochemical. The conditions noted are these: citric acid/disodium phosphate buffer, pH 6.8.
The subject of data set [7] is Rattus norvegicus. Briefly: Clearance in Sprague-Dawley rat at 1 mg/kg, iv by HPLC-MS/MS analysis relative to hepatic blood flow. Type of data set: ADME, organism-based. To be noted: in vivo.
A short description of data set [8]: Volume of distribution at steady state in Sprague-Dawley rat at 1 mg/kg, iv by HPLC-MS/MS analysis. It counts as ADME, organism-based. To be noted: in vivo, read-out: Vdss.
Data set [9] has as its target T2, hERG (KCNH2) (Homo sapiens, UniProt Q12809). Briefly: Inhibition of human ERG expressed in HEK293 cells at 30 uM by whole-cell patch clamp method relative to control. Type of data set: cell-based. To be noted: HEK293 cells expressing human ERG.
Data set [10] in a line: Aqueous kinetic solubility of the compound at pH 7.4. Type of data set: physicochemical. To be noted: buffer.
The nature of data set [11]: Clearance in human hepatocytes at 1 uM measured after 1 hr by LC/MS analysis relative to hepatic blood flow. Type of data set: ADME, cell-based, Hepatocyte.
In data set [12] the target is T2, hERG (KCNH2). Briefly: Inhibition of human ERG expressed in CHO cells at 10 uM at -70mV holding potential measured after 300 secs by IonWorks electrophysiology method relative to control. It counts as cell-based. To be noted: CHO cells expressing human ERG.
In data set [13] the target is T2, hERG (KCNH2). Briefly: Inhibition of human ERG expressed in HEK293 cells at 37 uM by whole-cell patch clamp method relative to control. Type of data set: cell-based. To be noted: HEK293 cells expressing human ERG. On the technique in general: Patch clamp records ionic current or voltage across a cell membrane.
Data set [14] deals with T2, hERG (KCNH2). Briefly: Inhibition of human ERG expressed in HEK293 cells at 34 uM by whole-cell patch clamp method relative to control. Type of data set: cell-based. To be noted: HEK293 cells expressing human ERG.
The target in data set [15] is T2, hERG (KCNH2). Briefly: Inhibition of human ERG expressed in CHO cells at 34 uM at -70mV holding potential measured after 300 secs by IonWorks electrophysiology method relative to control. It counts as cell-based. The conditions noted are these: CHO cells expressing human ERG.
Data set [16] deals with Rattus norvegicus. Briefly: Clearance in Wistar rat at 1 mg/kg, iv by HPLC-MS/MS analysis relative to hepatic blood flow. It counts as ADME, organism-based. To be noted: in vivo.
The nature of data set [17]: Mean residence time in Wistar rat at 1 mg/kg, iv by HPLC-MS/MS analysis. It counts as ADME, organism-based. The conditions noted are these: in vivo.
Data set [18] is described as follows: Oral bioavailability in Wistar rat at 3 mg/kg by HPLC-MS/MS analysis. Type of data set: ADME, organism-based. To be noted: in vivo.
Data set [19] is described as follows: Volume of distribution at steady state in Wistar rat at 1 mg/kg, iv by HPLC-MS/MS analysis. Type of data set: ADME, organism-based. The conditions noted are these: in vivo, read-out: Vdss.
Data set [20] concerns the target T2, hERG (KCNH2). Briefly: Inhibition of human ERG expressed in CHO cells at 42 uM at -70mV holding potential measured after 300 secs by IonWorks electrophysiology method relative to control. Type of data set: cell-based. The conditions noted are these: CHO cells expressing human ERG.

Values after ≈ are worked out from the molar mass of the structure shown.

T2 sequence (Q12809 whole entry): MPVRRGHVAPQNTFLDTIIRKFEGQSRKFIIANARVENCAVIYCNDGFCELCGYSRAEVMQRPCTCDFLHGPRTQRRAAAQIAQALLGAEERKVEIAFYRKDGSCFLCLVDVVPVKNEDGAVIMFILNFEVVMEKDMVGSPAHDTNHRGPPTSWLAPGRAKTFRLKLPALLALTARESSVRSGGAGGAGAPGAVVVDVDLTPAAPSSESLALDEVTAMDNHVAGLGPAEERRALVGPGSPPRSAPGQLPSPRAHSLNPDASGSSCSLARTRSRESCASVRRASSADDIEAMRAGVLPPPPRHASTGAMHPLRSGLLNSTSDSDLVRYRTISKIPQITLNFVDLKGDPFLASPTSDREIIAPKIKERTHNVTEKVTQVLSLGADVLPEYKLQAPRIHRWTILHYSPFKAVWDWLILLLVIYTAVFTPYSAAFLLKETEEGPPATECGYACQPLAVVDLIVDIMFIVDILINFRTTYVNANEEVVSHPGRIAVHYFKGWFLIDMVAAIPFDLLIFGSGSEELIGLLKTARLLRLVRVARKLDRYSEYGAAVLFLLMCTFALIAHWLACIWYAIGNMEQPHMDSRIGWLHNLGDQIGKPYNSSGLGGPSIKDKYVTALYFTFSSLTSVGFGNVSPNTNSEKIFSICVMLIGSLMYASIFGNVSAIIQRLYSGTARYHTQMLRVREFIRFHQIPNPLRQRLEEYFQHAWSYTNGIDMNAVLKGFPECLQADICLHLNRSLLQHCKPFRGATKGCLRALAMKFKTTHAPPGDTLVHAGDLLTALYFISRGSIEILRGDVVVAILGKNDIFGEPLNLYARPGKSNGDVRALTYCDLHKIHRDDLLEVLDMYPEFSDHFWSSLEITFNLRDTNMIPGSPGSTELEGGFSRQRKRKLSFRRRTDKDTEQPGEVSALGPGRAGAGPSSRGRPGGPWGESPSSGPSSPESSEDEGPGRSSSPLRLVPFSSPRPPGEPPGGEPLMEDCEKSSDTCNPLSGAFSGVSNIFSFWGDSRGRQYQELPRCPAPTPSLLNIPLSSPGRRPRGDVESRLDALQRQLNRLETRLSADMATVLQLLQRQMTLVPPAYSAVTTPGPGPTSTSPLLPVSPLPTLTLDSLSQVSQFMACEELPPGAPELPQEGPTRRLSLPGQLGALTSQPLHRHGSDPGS

Take `CC(C)[C@](C)(c1ccc(-c2cnc(N)nc2)nc1)c1noc(-c2cnn(CC(C)(C)O)c2)n1`: the IC50 (as a rule, the point on the concentration scale where inhibition reaches its midpoint) in [1] is 13 nM; in data set [2] it was 41 nM. The bioavailability in [3] came out at 114%. In addition, the hepatic extraction ratio at 1 h, 1 µM in data set [4] is less than 0.3; in data set [11], 0.3. In addition, the MRT (usually the average time that molecules of a dose stay in the body) in data set [5] was 4.6 h. Further, in data set [6], the solubility (thermodynamic) (in general, the concentration in solution at equilibrium with solid) at 24 h, 1 µM came to 210 µg/mL (≈ 468 µM). For the same molecule, in the data set on Rattus norvegicus [7], the CL amounted to 10%. Besides, in data set [8], the Vd is 2 L/kg. The inhibition (as a rule, how much of the control response was suppressed) at 30 µM against hERG (KCNH2) [9] came out at 21%. In addition, the Kinetic_solubility result in data set [10] is “Soluble”.

Consider `Cn1cc(-c2nc([C@@](C)(c3ccc(-c4cnc(N)nc4)nc3)C3CC3)no2)cn1`, for which the half-inhibitory concentration (IC50) in data set [1] is 3 nM; in data set [2], 26 nM. The hepatic extraction ratio at 1 h, 1 µM is less than 0.3 in [4] and 0.59 in data set [11]. The inhibition at 5 min, 10 µM on hERG (KCNH2) [12] was found to be 13%.

On to `CC(C)[C@](C)(c1ccc(-c2cnc(N)nc2)nc1)c1noc(-c2cnn(CC#N)c2)n1`, for which the results for the IC50 in data set [1] and in [2] were 23 nM and 40 nM, respectively. The hepatic extraction ratio at 1 h, 1 µM in [4] is less than 0.24; in [11] it was 0.31. 37 µM produced 38% inhibition at hERG (KCNH2) [13].

Regarding `C[C@@](c1ccc(-c2cnc(N)nc2)cc1)(c1noc(N2CCC(O)CC2)n1)C1CC1`, 34 µM produced 30% inhibition on hERG (KCNH2) [14]. Besides, the inhibition at 5 min, 34 µM against hERG (KCNH2) [15] was determined as 30%. For the same molecule, in [6], the thermodynamic solubility at 24 h, 1 µM was 111 µg/mL (≈ 273 µM). This molecule also displayed a CL in the data set on Rattus norvegicus [16] of 33%. For the same molecule, the MRT in data set [17] was determined as 1.6 h. For the same molecule, the bioavailability in [18] worked out at 75%. Moreover, the Vd in [19] was 1.6 L/kg.

`CC(C)(O)Cn1cc(-c2nc([C@@](C)(c3ccc(-c4cnc(N)nc4)nc3)C3CC3)no2)cn1` returned a thermodynamic solubility at 24 h, 1 µM in [6] of 26 µg/mL (≈ 58.2 µM). Besides, the inhibition at 5 min, 42 µM against hERG (KCNH2) [20] worked out at 34%. Also, the Kinetic_solubility entry in data set [10] was “Soluble”.
